IC50 data for 29 compounds are collected here from US11649255B2, “Indazoles as hematopoietic progenitor kinase 1 (HPK1) inhibitors and methods using same” (1st Biotherapeutics, Inc., priority 2020, dated 2023).

The target in the assay is recombinant human HPK1 (Homo sapiens (Human), UniProt Q92918). Description: HPK1 kinase assay (ADP-Glo). Format: biochemical. The following applies: 25 μM ATP, MBP substrate. Put shortly: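 Activity was read as ADP formed, detected by ADP-Glo luminescence after the reaction of 5 ng recombinant human HPK1 with MBP and ATP (stocks 0.5 μg/μl and 25 μM) for 40 min at 30 °C. Buffer was Tris pH 7.5 with MgCl2, BSA and DTT, with compound in 0.5% DMSO. IC50 came from inhibition curves.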
recombinant human HPK1, sequence (Q92918 whole entry): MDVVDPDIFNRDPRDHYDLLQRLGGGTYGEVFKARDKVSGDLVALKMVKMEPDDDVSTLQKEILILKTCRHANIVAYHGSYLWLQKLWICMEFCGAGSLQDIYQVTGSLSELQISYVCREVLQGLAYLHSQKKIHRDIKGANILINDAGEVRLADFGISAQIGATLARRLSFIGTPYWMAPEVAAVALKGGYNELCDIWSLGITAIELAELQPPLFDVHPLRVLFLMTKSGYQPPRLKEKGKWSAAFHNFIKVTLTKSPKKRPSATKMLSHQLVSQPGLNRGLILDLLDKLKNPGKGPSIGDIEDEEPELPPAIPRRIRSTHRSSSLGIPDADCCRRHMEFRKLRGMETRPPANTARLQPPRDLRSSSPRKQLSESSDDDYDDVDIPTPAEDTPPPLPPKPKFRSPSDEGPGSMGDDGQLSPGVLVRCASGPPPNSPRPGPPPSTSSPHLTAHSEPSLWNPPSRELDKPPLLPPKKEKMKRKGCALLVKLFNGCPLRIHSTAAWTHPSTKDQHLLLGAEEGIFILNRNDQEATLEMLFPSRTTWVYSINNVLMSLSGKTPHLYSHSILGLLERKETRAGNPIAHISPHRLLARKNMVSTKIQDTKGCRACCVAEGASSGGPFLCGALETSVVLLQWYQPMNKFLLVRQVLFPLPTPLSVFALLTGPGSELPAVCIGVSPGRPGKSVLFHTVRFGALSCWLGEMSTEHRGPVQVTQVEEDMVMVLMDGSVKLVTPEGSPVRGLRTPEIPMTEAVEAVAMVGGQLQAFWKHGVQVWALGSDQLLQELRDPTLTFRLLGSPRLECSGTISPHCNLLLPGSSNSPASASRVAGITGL
For the compound `COC[C@H](C)c1c(F)c(Cl)c(-c2ccc3nc(NC(=O)[C@@H]4C[C@@H]4F)cn3c2)c2cn[nH]c12` [Example 422, (1S,2S)-N-(6-(5-chloro-6-fluoro-7-((R)-1-methoxypropan-2-yl)-1H-indazol-4-yl)imidazo[1,2-a]pyridin-2-yl)-2-fluorocyclopropane-1-carboxamide], the IC50 was less than 100 nM.
The value for `O=C(Nc1cn2cc(-c3c(Cl)c(F)c(OC4CC4)c4[nH]ncc34)ccc2n1)[C@@H]1C[C@@H]1F` [Example 401, (1S,2S)-N-(6-(5-chloro-7-cyclopropoxy-6-fluoro-1H-indazol-4-yl)imidazo[1,2-a]pyridin-2-yl)-2-fluorocyclopropane-1-carboxamide] was less than 100 nM; that for `CCOc1c(F)c(C)c(-c2ccc3nc(NC(=O)[C@@H]4C[C@@H]4F)cn3c2)c2cn[nH]c12` [Example 288, (1S,2S)-N-(6-(7-ethoxy-6-fluoro-5-methyl-1H-indazol-4-yl)imidazo[1,2-a]pyridin-2-yl)-2-fluorocyclopropane-1-carboxamide] was less than 100 nM.
The value for `CC(C)c1c(F)c(Cl)c(-c2ccc3nc(NC(=O)[C@@H]4C[C@@H]4F)cn3c2)c2cn[nH]c12` [Example 405, (1S,2S)-N-(6-(5-chloro-6-fluoro-7-isopropyl-1H-indazol-4-yl)imidazo[1,2-a]pyridin-2-yl)-2-fluorocyclopropane-1-carboxamide] was less than 100 nM; that for `COC(=O)c1c(F)c(C)c(-c2ccn3nc(NC(=O)[C@@H]4C[C@@H]4F)cc3c2)c2cn[nH]c12` [Example 548, methyl 6-fluoro-4-(2-((1S,2S)-2-fluorocyclopropane-1-carboxamido)pyrazolo[1,5-a]pyridin-5-yl)-5-methyl-1H-indazole-7-carboxylate] was less than 100 nM; that for `Cc1c(F)c(C(=O)O)c2[nH]ncc2c1-c1ccc2nc(NC(=O)[C@@H]3C[C@@H]3F)sc2c1` [Example 124, 6-fluoro-4-(2-((1S,2S)-2-fluorocyclopropane-1-carboxamido)benzo[d]thiazol-6-yl)-5-methyl-1H-indazole-7-carboxylic acid] was greater than 1000 nM.
On to `CNC(=O)C(C)c1c(F)c(Cl)c(-c2ccc3nc(NC(=O)[C@@H]4C[C@@H]4F)cn3c2)c2cn[nH]c12` (stereo partly drawn) [Example 433, (1S,2S)-N-(6-(5-chloro-6-fluoro-7-(1-(methylamino)-1-oxopropan-2-yl)-1H-indazol-4-yl)imidazo[1,2-a]pyridin-2-yl)-2-fluorocyclopropane-1-carboxamide], for which the half-maximal inhibitory concentration (IC50) is less than 100 nM.
The value for `CCC(=O)NC(C)c1c(F)c(Cl)c(-c2ccc3nc(NC(=O)[C@@H]4C[C@@H]4F)cn3c2)c2cn[nH]c12` (stereo partly drawn) [Example 424, (1S,2S)-N-(6-(5-chloro-6-fluoro-7-(1-propionamidoethyl)-1H-indazol-4-yl)imidazo[1,2-a]pyridin-2-yl)-2-fluorocyclopropane-1-carboxamide] was less than 100 nM; that for `CC(C)(C)OC(=O)NC1CCC(Nc2c(F)c(Cl)c(-c3ccn4nc(NC(=O)[C@@H]5C[C@@H]5F)cc4c3)c3cn[nH]c23)CC1` (stereo partly drawn) [Example 516, tert-butyl (4-((5-chloro-6-fluoro-4-(2-((1S,2S)-2-fluorocyclopropane-1-carboxamido)pyrazolo[1,5-a]pyridin-5-yl)-1H-indazol-7-yl)amino)cyclohexyl)carbamate] was less than 100 nM.
As for `Cc1c(F)c(C(=O)O)c2[nH]ncc2c1-c1ccc2nc(NC(=O)[C@@H]3C[C@@H]3F)sc2n1` [Example 188, 6-fluoro-4-(2-((1S,2S)-2-fluorocyclopropane-1-carboxamido)thiazolo[5,4-b]pyridin-5-yl)-5-methyl-1H-indazole-7-carboxylic acid], the figure is greater than 1000 nM; as for `C=Cc1n[nH]c2cc(F)c(C)c(-c3ccn4nc(NC(=O)[C@@H]5C[C@@H]5F)cc4c3)c12` [Example 474, (1S,2S)-2-fluoro-N-(5-(6-fluoro-5-methyl-3-vinyl-1H-indazol-4-yl)pyrazolo[1,5-a]pyridin-2-yl)cyclopropane-1-carboxamide], 101 to 500 nM.
As for `Cc1c(F)c(OC(F)(F)F)c2[nH]ncc2c1-c1ccc2nc(NC(=O)[C@@H]3C[C@@H]3F)sc2n1` [Example 213, (1S,2S)-2-fluoro-N-(5-(6-fluoro-5-methyl-7-(trifluoromethoxy)-1H-indazol-4-yl)thiazolo[5,4-b]pyridin-2-yl)cyclopropane-1-carboxamide], the figure is greater than 1000 nM; as for `Cc1ccc2[nH]nc(N)c2c1-c1ccc2nc(NC(=O)C3CC3)sc2c1` [Example 26, N-(6-(3-amino-5-methyl-1H-indazol-4-yl)benzo[d]thiazol-2-yl)cyclopropanecarboxamide], greater than 1000 nM.
Turning to `Cc1c(F)c(C(=O)O)c2[nH]ncc2c1-c1ccc2nc(NC(=O)[C@@H]3C[C@@H]3F)cn2c1` [Example 313, 6-fluoro-4-(2-((1S,2S)-2-fluorocyclopropane-1-carboxamido)imidazo[1,2-a]pyridin-6-yl)-5-methyl-1H-indazole-7-carboxylic acid], the half-maximal inhibitory concentration (IC50) is greater than 1000 nM.
Turning to `C#Cc1c(F)cc2[nH]ncc2c1-c1ccc2nc(NC(=O)[C@@H]3C[C@@H]3F)sc2c1` [Example 47, (1S,2S)-N-(6-(5-ethynyl-6-fluoro-1H-indazol-4-yl)benzo[d]thiazol-2-yl)-2-fluorocyclopropane-1-carboxamide], the IC50 is less than 100 nM.
The value for `CN(C)C(=O)c1c(F)cc2[nH]ncc2c1-c1ccc2nc(NC(=O)[C@@H]3C[C@@H]3F)cn2c1` [Example 355, 6-fluoro-4-(2-((1S,2S)-2-fluorocyclopropane-1-carboxamido)imidazo[1,2-a]pyridin-6-yl)-N,N-dimethyl-1H-indazole-5-carboxamide] was greater than 1000 nM; that for `Nc1c(F)c(Cl)c(-c2ccc3nc(NC(=O)[C@@H]4C[C@@H]4F)sc3c2)c2cn[nH]c12` [Example 68, (1S,2S)-N-(6-(7-amino-5-chloro-6-fluoro-1H-indazol-4-yl)benzo[d]thiazol-2-yl)-2-fluorocyclopropane-1-carboxamide] was less than 100 nM.
As for `CCOC(=O)CSc1c(F)c(CC)c(-c2ccc3nc(NC(=O)[C@@H]4C[C@@H]4F)sc3n2)c2cn[nH]c12` [Example 165, ethyl 2-((5-ethyl-6-fluoro-4-(2-((1S,2S)-2-fluorocyclopropane-1-carboxamido)thiazolo[5,4-b]pyridin-5-yl)-1H-indazol-7-yl)thio)acetate], the figure is less than 100 nM; as for `Cc1ccc2[nH]ncc2c1-c1ccc2nc(NC(=O)C3CCC3)sc2c1` [Example 4, N-(6-(5-methyl-1H-indazol-4-yl)benzo[d]thiazol-2-yl)cyclobutanecarboxamide], 501 to 1000 nM; as for `CN(c1nccnn1)c1c(F)c(Cl)c(-c2ccn3nc(NC(=O)[C@@H]4C[C@@H]4F)cc3c2)c2cn[nH]c12` [Example 618, (1S,2S)-N-(5-(5-chloro-6-fluoro-7-(methyl(1,2,4-triazin-3-yl)amino)-1H-indazol-4-yl)pyrazolo[1,5-a]pyridin-2-yl)-2-fluorocyclopropane-1-carboxamide], less than 100 nM.
`CSc1ccc2[nH]ncc2c1-c1ccc2nc(NC(=O)C3CC3)cn2c1` [Example 247, N-(6-(5-(methylthio)-1H-indazol-4-yl)imidazo[1,2-a]pyridin-2-yl)cyclopropanecarboxamide]: the IC50 is less than 100 nM.
The value for `Cc1c(F)c(S(C)(=O)=O)c2[nH]ncc2c1-c1ccc2nc(NC(=O)[C@@H]3C[C@@H]3F)cn2c1` [Example 302, (1S,2S)-2-fluoro-N-(6-(6-fluoro-5-methyl-7-(methylsulfonyl)-1H-indazol-4-yl)imidazo[1,2-a]pyridin-2-yl)cyclopropane-1-carboxamide] was 101 to 500 nM.
The value for `Cc1c(F)c(C(F)(F)F)c2[nH]ncc2c1-c1ccn2nc(NC(=O)[C@@H]3C[C@@H]3F)cc2c1` [Example 482, (1S,2S)-2-fluoro-N-(5-(6-fluoro-5-methyl-7-(trifluoromethyl)-1H-indazol-4-yl)pyrazolo[1,5-a]pyridin-2-yl)cyclopropane-1-carboxamide] was less than 100 nM; that for `CCc1c(F)c(SCC(=O)O)c2[nH]ncc2c1-c1ccn2nc(NC(=O)[C@@H]3C[C@@H]3F)cc2c1` [Example 526, 2-((5-ethyl-6-fluoro-4-(2-((1S,2S)-2-fluorocyclopropane-1-carboxamido)pyrazolo[1,5-a]pyridin-5-yl)-1H-indazol-7-yl)thio)acetic acid] was less than 100 nM.
As for `O=C(Nc1cc2cc(-c3c(CO)ccc4[nH]ncc34)ccn2n1)[C@@H]1C[C@@H]1F` [Example 461, (1S,2S)-2-fluoro-N-(5-(5-(hydroxymethyl)-1H-indazol-4-yl)pyrazolo[1,5-a]pyridin-2-yl)cyclopropane-1-carboxamide], the figure is greater than 1000 nM.
With `COc1c(F)cc2[nH]ncc2c1-c1ccc2nc(NC(=O)C3CC3)cn2c1` [Example 252, N-(6-(6-fluoro-5-methoxy-1H-indazol-4-yl)imidazo[1,2-a]pyridin-2-yl)cyclopropanecarboxamide], the IC50 is less than 100 nM.
The value for `Cc1c(F)c(Cl)c2[nH]ncc2c1-c1ccn2nc(NC(=O)[C@@H]3C[C@@H]3F)cc2c1` [Example 479, (1S,2S)-N-(5-(7-chloro-6-fluoro-5-methyl-1H-indazol-4-yl)pyrazolo[1,5-a]pyridin-2-yl)-2-fluorocyclopropane-1-carboxamide] was less than 100 nM; that for `O=C(Nc1cn2cc(-c3cc(F)c(OC(F)(F)F)c4[nH]ncc34)ccc2n1)[C@@H]1C[C@@H]1F` [Example 344, (1S,2S)-2-fluoro-N-(6-(6-fluoro-7-(trifluoromethoxy)-1H-indazol-4-yl)imidazo[1,2-a]pyridin-2-yl)cyclopropane-1-carboxamide] was 101 to 500 nM.
The value for `COc1c(F)c(Cl)c(-c2ccn3nc(NC(=O)[C@@H]4C[C@@H]4F)cc3c2)c2cn[nH]c12` [Example 492, (1S,2S)-N-(5-(5-chloro-6-fluoro-7-methoxy-1H-indazol-4-yl)pyrazolo[1,5-a]pyridin-2-yl)-2-fluorocyclopropane-1-carboxamide] was less than 100 nM.
